The text below walks through data of patent publication US20180049996A1, “THERAPEUTIC AGENT FOR CHRONIC RESPIRATORY DISEASE AND COMPOSITION FOR INHIBITING CARDIAC FIBROSIS” (NIPPON HYPOX LABORATORIES INCORPORATED, priority 2015, published 2018).

The subject of assay [1] is Pulmonary Fibrosis Induced by Bleomycin. Kind of assay: Body weight and relative weight of lungs, pulmonary fibrosis induced by bleomycin. It is filed as in vivo, male SD rats. Particulars: test groups 2 and 3: bleomycin 7.5 mg/kg + HTHQ 50 or 200 mg/kg/day oral; day 20; compared to bleomycin-single group, p<0.05. As for the experimental part:
Bleomycin is used to produce disease-model animals of interstitial pneumonia. The bleomycin and 2,3,5-trimethylhydroquinone-1-hexyl ether (HTHQ) as the hydroquinone derivative represented by the general formula (1) described above of the present invention were simultaneously administered to male SD rats of 10 week old after birth to examine the effect of the action. The test groups consisted of the control group to which sterile saline was administered; test group 1 to which bleomycin (7.5 mg/kg body weight) alone was administered; test group 2 to which bleomycin (7.5 mg/kg body weight) and HTHQ (50 mg/kg body weight/day) were administered in combination; and test group 3 to which bleomycin (7.5 mg/kg body weight) and HTHQ (200 mg/kg body weight/day) were administered in combination.
In test groups 1 to 3, bleomycin was orally administered in a single dose. In test groups 2 and 3, 2,3,5-trimethylhydroquinone-1-hexyl ether (HTHQ) was daily orally administered for 10 or 20 days starting from 24 h after the administration of bleomycin. In test group 1, olive oil, which was used as a solvent of HTHQ, was daily orally administered at 10 mL/kg/day starting from 24 h after the administration of bleomycin. The number of animals in each group was 16. 8 animals of each group were sacrificed on days 10 and 20 after the administration of bleomycin and measurement of body weight, lung autopsy, histopathologic examination of lungs and bronchoalveolar lavage examination were conducted.
The body weight of the rats in the control group increased over time during the test period. […] The weight of the interstitial tissue of lungs tends to increase and the relative weight of lungs tends to rise when the tissue fibroses. […] Thus, it was expected that the degree of the progression of pulmonary fibrosis of the rats in test groups 2 and 3, to which HTHQ was administered, was less than the rats in test group 1.

In assay [2] the test system is IL-4. Kind of assay: IL-4 level in BAL fluid (ELISA), ovalbumin asthma model. It is filed as in vivo, BALB/c female mice. Particulars: HTHQ 20 and 40 mg/kg/day oral; compared to OVA group. As for the experimental part: 6 week old BALB/c female mice were purchased and the mice were divided into 5 groups with 5 animals per group shown in Table 3 below after habituation breeding of about 2 weeks.
The test was conducted on the schedule of sensitization, causing diseases and administration of test materials shown in FIG. 12. “IP” in FIG. 12 refers to ovalbumin sensitization treatment by the intraperitoneal administration of ovalbumin/aluminum hydroxide, and “IH” refers to inhalation exposure treatment of ovalbumin, and “PO” refers to the administration of the test materials. […]
All mice were euthanized by intraperitoneal injection of pentobarbital (Hanrimu pharmaceutical, South Korea) at 50 mg/kg and the bronchi were excised on day 25 of the test. […] After preparing slide samples from 100 μL of BAL cell fluid using Cytospin (4° C., 1000 rpm×5 min), the cell numbers of inflammatory cells (eosinophils, macrophages, lymphocytes and neutrophils) present in the BAL fluid were counted using a Diff-Quik stain kit.
The supernatant of the BAL fluid stored was taken out of the super-cryostat and IL-4, IL-5 and IL-13 levels were measured as the pro-inflammatory cytokine contents in the supernatant of the BAL fluid. A quantitative ELISA kit (a product from R&D systems) and a microplate reader (a product from Bio-Rad Laboratories, Inc.) were used for the measurement and the measurement wavelength was 450 nm.
A general note: An ELISA detects its analyte on a solid surface through an enzyme-linked reagent.

On to `CCCCCCOc1cc(C)c(O)c(C)c1C` [HTHQ, 2,3,5-trimethylhydroquinone-1-hexyl ether], for which the “relative weight of lungs” value in assay [1] was “significantly low”. In addition, the “IL-4 content in BAL fluid” value in assay [2] was “significantly reduced”.
